Entries after “also recorded” stand apart in the source; their conditions may differ. Like-named read-outs stand apart in the source and are kept apart here.
Columns and labels:
HL-60 cells [1] = assay: HL-60 leukemia cell growth (Coulter counter or MTT assay); type: cell-based, human; conditions: for cell growth, % of untreated control cells: HL-60, MTT, three days
Protocol: (§1) Cell Lines and Culture Conditions. HL-60, DLD1, and U937 cells were obtained from ATCC (Rockville, Md.). Meth A cells were from Dr. Wolfram Samlowski (University of Utah, Salt Lake City, Utah). The PPC-1 cell line was provided by Dr. Graeme Bolger (University of Alabama, Birmingham, Ala.). For the cell growth and apoptosis experiments, cells were cultured at a density of 150,000 cells/ml in RPMI-1640 with 10% fetal bovine serum at 37° C. in a 5% CO2 humidified atmosphere. Agents were added at the indicated concentrations 24 h after culture initiation. At the indicated time intervals, cells were harvested and washed twice in phosphate buffered saline (PBS) prior to processing for analysis of growth, differentiation, and apoptosis.
(§2) Cell Growth, Differentiation and Apoptosis Assays. The number of viable cells was determined using the MTT assay according to the manufacturer's protocol (Promega, Madison, Wis.) or using a Coulter counter. Briefly, a MTT assay is an analytical technique that uses the dye dimethylthiazolyl-diphenyltetrazolium (MTT) which turns from yellow to brownish-purple as it is reduced in the mitochondria of living cells. The assay is useful in calorimetric quantitation of cell viability and proliferation. In contrast, cell differentiation was evaluated using Wright and Non-Specific Esterase (NSE) staining of cells collected on microscope slides by cytospin as previously described (Magrinat, G. et al. (1992) Blood 80: 1880-1884). Apoptosis was assayed by flow cytometry and by determining DNA fragmentation using agarose gel electrophoresis as previously described (Shami, P. J. et al. (1998) Leukemia 12: 1461-1466). For the flow cytometry assay, we used the propidium iodide staining method of Nicoletti et al. (Nicoletti, I. et al. (1991) J. Immunol. Methods 139: 271-279).
For the initial screen, HL60 cells were cultured in triplicate in RPMI1640/10% FBS under standard conditions. Compounds were added to the cultures at the following concentrations: 0, 0.1, 1, 10, and 100 micromolar (uM). Three days after addition of the compounds cell growth was determined either using a Coulter counter or using the MTT assay.
The antiproliferative effects in the human AML (Acute Myeloid Leukemia) cell lines, HL-60 (myeloid leukemia) and U937 (monoblastic leukemia) cells were treated with JS-K for a period of 3 days, upon which cell growth was evaluated using a Coulter counter (CITY, STATE). JS-K was added to HL-60 cells at 0, 0.25, 0.5, 0.75, and 1.0 μM concentrations. […] Similar results were obtained in U937 cells under similar conditions.

HL-60 cells [2] = assay: Apoptosis in HL-60 cells by flow cytometry (sub-G0 fraction); type: cell-based, human; conditions: for percentage of apoptotic cells (sub-G0 fraction): three days post-addition, control 7 percent
Protocol: as §1, §2
To determine if JS-K could induce apoptosis in leukemia cells, it was added to HL-60 cells at concentrations of 0.5 and 1.0 μM. Three days post-addition, the percentage of apoptotic cells was determined by measuring the number of cells in the sub-G0 fraction of the cell cycle using flow cytometry. […]

[3] = NO release by chemiluminescence detection, GSH without enzyme; type: physicochemical
Protocol: Measurement of NO Release. Chemiluminescence detection and quantification of NO evolving from the reactions of JS-K were conducted using an NO-specific Thermal Energy Analyzer (Model 502A, Thermedics, Analytical Instrument Division, Waltham, Mass.) essentially as previously described (Keefer, L. K. et al. (1996) Methods Enzymol. 268: 281-293). Briefly, pH 7.4 phosphate buffer containing 1 mM GSH was sparged with inert gas until a steady detector response was established. Where indicated, GSTs were added to a final concentration of 1.67 ug of enzyme/ml. […] The resulting curve was integrated to quantify the amount of NO released/mole of compound.
These reactions led to NO generation as predicted as indicated by purging gases from the solution as they formed into an NO-specific chemiluminescence detector. […] In the absence of enzyme, NO release began immediately upon adding GSH, increasing in rate until plateauing at 8 min and integrating to a total of 1.1 mol of NO per mol of JS-K within 43 min of mixing.

HL-60 cells [4] = assay: Combination treatment: JS-K pretreatment then etoposide or daunorubicin, MTT; type: cell-based, human; conditions: HL-60, JS-K pretreatment (0.25 μM)
Protocol: Combination treatment. For combined drug treatment, HL-60 cell lines were pretreated with JS-K (0.25 μM) for 6 h in RPMI 1640 at 37° C. The JS-K-containing culture medium was then removed and replaced with fresh RPMI-1640. Three different concentrations of either etoposide (0.2, 0.3 and 0.4 μM) or daunorubicin (5, 10 and 50 nM) were added to the pretreated HL-60 cells. The cells were incubated at 37° C. for additional 48 hours. Solution of 3-[4,5-dimethylthiazol-2-yl]-2,5-[…] (MTT) tetrazolium salt (1 mg/ml) was added to the cells. The cells were incubated again for 3 h to allow for MTT metabolism to formazan by the succinate-tetrazolim reductase system active only in viable cells. A solution of 0.04 N HCl in isopropyl alcohol was added to stop the MTT assay. The supernatant was then aspirated and 150 μl of trituration was added to dissolve the water-insoluble blue formazan. The optical densities were read on a spectrophotometric plate reader at a single wavelength of 570 nm. The absorbance for control cells was defined as an MTT activity of 100%.

Compound: CCOC(=O)N1CCN(/[N+]([O-])=N/Oc2ccc([N+](=O)[O-])cc2[N+](=O)[O-])CC1 [JS-K, O^2-(2,4-dinitrophenyl) 1-[(4-ethoxycarbonyl)piperazin-1-yl]diazen-1-ium-1,2-diolate]
- IC50 (HL-60 cells [1]; HL-60, 3 days, Coulter counter, mean of 3 studies, read-out: IC50, cell growth): 220 nM
- cell growth, % of untreated control cells (HL-60 cells [1]; 0.75 uM): 28+/−0.79%
- cell growth, % of untreated control cells (HL-60 cells [1]; 0.75 uM JS-K together with 50 uM C-VAD-FMK): 79+/−2.4%
- IC50 (HL-60 cells [1]; HL-60, initial screen, at three days, read-out: 50% growth inhibitory concentration (IC50)): 220 nM
- JS-K-induced growth inhibition after NAC pretreatment (HL-60 cells [1]; HL-60, pretreatment 2-6 h with NAC): prevented the JS-K-induced growth inhibition
- JS-K-induced growth inhibition after BSO pretreatment (HL-60 cells [1]; HL-60, pretreatment with BSO for 2-6 h): did not appear to prevent the JS-K-induced growth inhibition
- JS-K-induced growth inhibition after BSO pretreatment (HL-60 cells [1]; HL-60, pretreatment with BSO for 24 h): appeared to enhance the effects
- IC50 (HL-60 cells [1]; HL-60 assay system, comparison with chemotherapeutic agents, read-out: IC50, growth inhibition): 500 nM
- percentage of apoptotic cells (sub-G0 fraction) (HL-60 cells [2]; 0.5 μM): 27±3%
- percentage of apoptotic cells (sub-G0 fraction) (HL-60 cells [2]; 1.0 μM): 43±2%
- percentage of apoptotic cells (HL-60 cells [2]; HL-60, flow cytometry, co-administration of C-VAD-FMK and JS-K, p=0.44 vs untreated): 2.65+/−0.28%
- time at which NO release rate plateaued ([3]; 1 mM GSH, no enzyme): 8 min
- total NO released ([3]; 1 mM GSH, pH 7.4 phosphate, 0.67 uM JS-K, no enzyme, within 43 min of mixing): 1.1 mol of NO per mol of JS-K
- NO detection without GSH ([3]; pH 7.4 phosphate/0.67 uM JS-K solution): did not appear to be detected until 1 mM GSH was added
- effect of JS-K pretreatment on daunorubicin and etoposide (HL-60 cells [4]): additive effect; also recorded: significantly enhanced efficacy of daunorubicin and etoposide

— patent publication US8404665B2, “In vivo use of glutathione S-transferase activated nitric oxide donors” (University of Utah Research Foundation, priority 2002, dated 2013)
